According to article PMC3716919, “Oxidative stress disruption of receptor-mediated calcium signaling mechanisms” (Journal of Biomedical Science, 2013):
“And” between values parts separate entries of the source, which are not always exact repeats. Identical values can stand only once. “Also recorded” adds a separate entry of the source.

Experiments:
[1] = biological target: T1, human M3 muscarinic acetylcholine receptor (Homo sapiens, UniProt P20309); format: cell-based
T1 construct: CHO cells expressing the human M3 muscarinic acetylcholine receptor open reading frame; host or cells: CHO cells, stably transfected (CHO-M3)
T1 sequence (P20309 whole entry): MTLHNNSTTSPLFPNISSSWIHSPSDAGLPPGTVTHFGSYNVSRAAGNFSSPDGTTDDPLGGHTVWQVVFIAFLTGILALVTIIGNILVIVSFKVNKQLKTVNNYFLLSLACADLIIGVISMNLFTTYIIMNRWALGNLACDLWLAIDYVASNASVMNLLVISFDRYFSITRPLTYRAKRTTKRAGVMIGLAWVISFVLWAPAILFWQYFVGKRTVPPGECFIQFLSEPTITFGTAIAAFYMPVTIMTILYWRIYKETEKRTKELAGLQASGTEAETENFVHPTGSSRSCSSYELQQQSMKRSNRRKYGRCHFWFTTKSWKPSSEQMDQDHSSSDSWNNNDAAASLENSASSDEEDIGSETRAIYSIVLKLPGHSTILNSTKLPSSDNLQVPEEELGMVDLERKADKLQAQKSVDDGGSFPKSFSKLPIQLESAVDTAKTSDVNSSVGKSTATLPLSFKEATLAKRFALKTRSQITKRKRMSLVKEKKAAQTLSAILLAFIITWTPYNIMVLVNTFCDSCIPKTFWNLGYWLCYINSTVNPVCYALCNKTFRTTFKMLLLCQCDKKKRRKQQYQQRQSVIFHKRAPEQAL

[2] = biological target: T2, human M2 muscarinic receptor (Homo sapiens, UniProt P08172); test: [3H]N-methylscopolamine dissociation from M2 receptors expressed in CHO cells; format: binding
T2 sequence (P08172 1-466): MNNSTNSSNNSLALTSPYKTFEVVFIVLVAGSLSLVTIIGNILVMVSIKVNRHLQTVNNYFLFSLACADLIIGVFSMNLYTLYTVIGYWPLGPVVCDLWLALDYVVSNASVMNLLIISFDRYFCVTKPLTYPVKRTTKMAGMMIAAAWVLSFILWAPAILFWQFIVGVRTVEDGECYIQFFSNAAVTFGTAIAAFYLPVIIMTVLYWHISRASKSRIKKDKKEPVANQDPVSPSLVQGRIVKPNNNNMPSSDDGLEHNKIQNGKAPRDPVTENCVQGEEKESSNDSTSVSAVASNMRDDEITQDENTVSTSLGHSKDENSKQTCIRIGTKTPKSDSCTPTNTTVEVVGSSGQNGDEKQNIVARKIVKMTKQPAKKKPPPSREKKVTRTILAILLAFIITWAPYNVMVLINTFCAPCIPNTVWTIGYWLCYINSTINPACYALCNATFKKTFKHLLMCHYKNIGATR
Experimental: (§1) In some experiments, the cells were exposed to 2 mM tBHP for 90 min before harvesting. Binding was determined by filtering the suspension through glass fiber filters (1 μm pore size) and measuring the amount of radioactivity bound to membranes trapped on the filters by liquid scintillation counting.
(§2) Binding parameters were averaged from 3 independent experiments. […] 5′-Guanylyl-imidodiphosphate (Gpp(NH)p) was included in some experiments to assess receptor – G protein interactions.
Muscarinic receptors can also be regulated by ligands that bind to an allosteric site. […] Accordingly, we measured ligand dissociation from muscarinic receptors after exposure to 2 mM tBHP for 90 min (Figure 9).

[3] = system: CHO-M3 cells; test: Thapsigargin-induced release of calcium from the ER in CHO-M3 cells (fura-2 imaging)
[4] = system: CHO-M3 cells; test: Endoplasmic reticulum luminal calcium (Mag-Fura 2, saponin-permeabilized cells); format: cell-based, Chinese hamster
Experimental: The concentration of Ca^2+ in the lumen of the ER ([Ca^2+]L) was measured using the low-affinity calcium indicator, Mag-Fura 2 (Molecular Probes). […] The media was removed and the cells rinsed with BSS and then incubated with Mag-Fura 2 (50 μM) for 60 minutes at room temperature. Mag-Fura 2 was removed and the cells incubated for an additional 30 minutes. Prior to imaging, the BSS was removed and replaced with Ca^2+- and Mg^2+-free BSS. During imaging, the cells were permeabilized by exposure to 0.005% saponin for 70 seconds to release cytosolic calcium. This caused a rapid decrease in total fluorescence intensity following excitation at both 340 and 380 nm, but elimination of the pervasive cytosolic signal allowed detection of ER lumen calcium levels 30 seconds after saponin addition. Following stabilization of the signal (≈100 sec), R340/380 was averaged for 10 seconds in approximately 20 cells on each plate.

[5] = biological target: T3, human M3 muscarinic receptor (Homo sapiens, UniProt P20309); format: binding
T3 construct: CHO cells expressing the human M3 muscarinic acetylcholine receptor open reading frame; host or cells: CHO cells, stably transfected (CHO-M3)
T3 sequence (P20309 whole entry): as the sequence (P20309 whole entry) above
Experimental: as §1, §2

[6] = system: CHO-M3 cells; test: Reactive oxygen species, DCFDA fluorescence; format: cell-based, Chinese hamster; conditions: 90 min exposure
Experimental: The concentration of reactive oxygen species (ROS) was determined by the […] of 2′,7′-dichlorodihydrofluorescein (DCFDA; Sigma). CHO-M3 cells were plated on a 96 well plate with opaque walls at a density of 30,000 cells/well, and incubated overnight in phenol red-free media. Following a 90 min exposure to tBHP, the media was removed and the cells were washed with BSS. DCFDA (100 μl of a 40 μM solution) was added, and the plate was incubated for 1 h before measuring fluorescence at 485 nm excitation/520 nm emission using a FLUOstar plate reader.

[7] = system: CHO-M3 cells; test: Resting cytosolic calcium concentration in CHO-M3 cells (fura-2 imaging); format: cell-based, Chinese hamster
[8] = system: store-operated calcium entry (SOCE) channels; test: Store-operated calcium entry (SOCE) in CHO-M3 cells (fura-2 imaging); format: cell-based, Chinese hamster; conditions: for initial rate of rise of [Ca2+]i in response to reintroduction of calcium: control cells; for acute effect of direct SOCE channel inhibitors on SOCE: added after activation of SOCE by 10 μM carbamylcholine, honokiol 30 μM in insert, unpublished observations
[9] = 90 min exposure, extracellular calcium present

CC(C)(C)OO [tBHP, tert-butyl hydroperoxide]
effect on the response to M3 receptor activation ([1]; 90 min exposure, all concentrations at or above 1 mM, no extracellular calcium): depressed | effect on the initial calcium response to carbamylcholine [1, 9]: not significantly affected | effect on allosteric receptor actions ([2]; 2 mM for 90 min): not affected | inhibition of the initial thapsigargin-stimulated release of calcium from the ER ([3]; 90 min exposure, all concentrations 0.5 to 5 mM, calcium-free medium): 50% | decrease of [Ca2+]L ([4]; 90 min exposure, 0.5-10 mM (abstract)): 55% | [Ca2+]L, % of control levels ([4]; pretreatment 1-20 mM for 90 min): ≈ 55 % of control | effect on ability of carbamylcholine to inhibit [3H]MS binding [5]: not affected | effect on atropine-induced dissociation of M3 receptor-[3H]MS complex and on gallamine slowing of dissociation [5]: had no effect | effect on [3H]MS binding affinity ([5]; 2 mM for 90 min): not affected | threshold concentration for ROS production [6]: 5 mM | increase in ROS ([6]; at 10 mM tBHP): up to 400% | resting [Ca2+]i after exposure (control 26 nM) ([7]; 20 mM tBHP, 90 min, 2 mM extracellular calcium): 127 nM | resting [Ca2+]i after exposure (control 26 nM) ([7]; 0.5-10 mM tBHP, 90 min (abstract)): up to 127 nM | resting calcium concentration after exposure ([7]; 90 min exposure, Figure 3a): > 100 nM | acute effect on calcium entry after activation of SOCE ([8]; 20 mM added at 120 sec after 10 μM carbamylcholine): did not block calcium entry | depression of SOCE after thapsigargin ([8]; 90 min exposure, 0.5-5 mM, dose-dependent, calcium reintroduced (2 mM)): 30-70% | effect on ability of thapsigargin-induced calcium release to evoke SOCE ([8]; 90 min exposure, 0.5-20 mM, extracellular calcium present): severely compromised | effect on ability to maintain the higher level of [Ca2+]i (plateau, SOCE) [8, 9]: compromised in a concentration-dependent manner

C[N+](C)(C)CCOC(N)=O.[Cl-] [carbamylcholine]
initial rate of rise of [Ca2+]i in response to reintroduction of calcium ([8]; after carbamylcholine in calcium-free medium, 2 mM calcium reintroduced): 24 ± 8 nM/s

NCCOB(c1ccccc1)c1ccccc1 [2-aminoethoxydiphenylborane]
effect on all calcium responses to carbamylcholine [1]: completely blocked | acute effect of direct SOCE channel inhibitors on SOCE [8]: immediate reductions in SOCE; also recorded: immediate reduction of SOCE

C/C=C(/C)C(=O)O[C@H]1C(C)=C2[C@H]([C@@H]1OC(=O)CCCCCCC)[C@@](C)(OC(C)=O)C[C@H](OC(=O)CCC)[C@@]1(O)[C@H]2OC(=O)[C@@]1(C)O [thapsigargin]
initial rate of rise of [Ca2+]i in response to thapsigargin ([3]; control cells, 1 μM thapsigargin, extracellular calcium present): 4.3 ± 0.6 nM/s | initial rate of rise of [Ca2+]i in response to reintroduction of calcium ([8]; after 1 μM thapsigargin in calcium-free medium): 40.0 ± 5.1 nM/s

Cl.O=S(=O)(c1cccc2c(Cl)cccc12)N1CCCNCC1 [ML 9, 1-(5-chloronaphthalenesulfonyl)homo piperazine hydrochloride]
acute effect of direct SOCE channel inhibitors on SOCE [8]: immediate reduction of SOCE

Nc1nc2c(ncn2[C@@H]2O[C@H](COP(=O)(O)OP(=O)(O)NP(=O)(O)O)[C@@H](O)[C@H]2O)c(=O)[nH]1 [Gpp(NH)p, 5′-Guanylyl-imidodiphosphate]
effect on carbamylcholine inhibition curves of [3H]MS binding [5]: shifted the inhibition curves to the right

C=CCc1ccc(O)c(-c2ccc(O)c(CC=C)c2)c1 [honokiol]
acute effect of direct SOCE channel inhibitors on SOCE [8]: immediate reductions in SOCE; also recorded: immediate reduction of SOCE

C[N+]1(C)[C@@H]2CC(OC(=O)[C@H](CO)c3ccccc3)C[C@H]1[C@@H]1O[C@@H]12 (stereo partly shown) [[^3H]MS, [^3H]N-methylscopolamine]
k−1, rate constant for [3H]MS dissociation [2]: 0.027 ± 0.004 min⁻¹ and 0.021 ± 0.006 min⁻¹ | k−1, rate constant for [3H]MS dissociation, with gallamine [2]: 0.004 ± 0.001 min⁻¹ and 0.005 ± 0.002 min⁻¹
